This is an account of results in patent US10646565B2, “Treatment of alzheimer'S disease (AD) with an aluminum salt” (AFFIRIS AG, priority 2014, dated 2020).

In series [1] the test system is patients with early AD. Kind of series: AFF006 clinical trial: patient disposition, reason for discontinuation. Format: in vivo, human. The procedure: Data supporting the invention are derived from a randomized clinical trial in early AD patients. The study (AFF006; Eudract: 2009-016504-22) randomized early AD patients into 5 treatment arms. Patients of 2 study arms received either 1 mg aluminium or 2 mg aluminium. In total, 99 early AD patients were enrolled into the 2 study arms. Participation of a given patient lasted 18 months.
AFF006 was conducted as a randomized, placebo-controlled, parallel group, double-blind, multi-center phase II study and assessed the clinical and immunological activity as well as the safety and tolerability of repeated s.c. administrations of i.a. aluminium (different doses) in patients with early AD, as defined in the protocol. It was performed in a total of 6 countries: Austria, France, Germany, Slovakia, Czech Republic and Croatia.
The clinical trial comprised 10 regular outpatient visits and 6 telephone interviews. Up to four weeks before start of treatment, a screening visit (Visit 1) was performed to ensure suitability of the patients for the clinical trial and to establish the patients' baseline characteristics. Following screening, eligible patients were randomly allocated to the treatment groups. After randomization at week 0, patients received 6 injections with either 1 or 2 mg aluminium. Injections were applied s.c. by the investigator at weeks 0, 4, 8, 12, 40 and 65 (Visit 2, 3, 4, 5, 7 and 9).
adverse events (AEs) and serious adverse events (SAEs) (number of patients who withdrew due to AEs; reason for withdrawal)

The subject of series [2] is patients with early AD. Description: AFF006 clinical trial: adapted ADAS-cog, adapted ADCS-ADL and Composite score. The class given is in vivo, human. The source says: The present invention provides for the first time an AD treatment that is disease modifying. The effectiveness of the treatment according to the present invention is proven by the parameters required by the drug authorisation authorities, especially the EMEA and the US-FDA. For example, the EMEA guideline for AD treatment requires primary endpoints reflecting the cognitive and the functional domain. Accordingly, a combined (Composite) score is used for the clinical assessment of the present invention. This composite score combines two established scores, one for the cognitive function (ADAS-cog (Alzheimer's Disease Assessment Scale-cognitive subscale)) and one for the functional ability (ADCS-ADL (Alzheimer's Disease Co-operative Study—Activities of Daily Living Inventory)). The adapted ADAS-cog combines items that assess cognitive function. The adapted ADCS-ADL includes items that are sensitive to functional ability. […]
Combined composite according to the present invention: =1.67*Word recall+1.35*Orientation+1.42*Word Recognition+0.55*Recall Instructions+0.81*Spoken Language+1.01*Word Finding+5.42*ONB+0.15*VPAL+0.19*Category Fluency+0.28*Belongings+0.35*Shopping+0.23*Hobbies+0.38*Beverage+0.37*Meal+0.23*Current Events+0.26*TV+0.33*Keeping Appointments+0.37*Travel+0.33*Alone+0.35*Appliance+0.49*Clothes+0.36*Read+0.62*Telephone+0.33*Writing
The primary efficacy variables are the change from baseline (CFB) in cognition as measured by an adapted ADAS-cog, CFB in function as measured by an adapted ADCS-ADL and a combination of CFB in cognition and function as measured by a combined composite:
ADAS-cog and other items included in the adapted ADAS-cog were measured at Visits 1, 2, 3, 5, 6, 7, 8, 9 and 10 or EDV. ADCS-ADL were measured at Visits 2, 5, 6, 7, 8, 9 and 10 or EDV. Items that contributing to the combined primary outcome were measured at Visits 2, 5, 6, 7, 8, 9 and 10 or EDV.
The primary efficacy outcomes all range from 0 to 100. […] Before a composite was calculated, contributing items that are scored in the opposite direction were reversed. […]

In a further series the target is T1, Ovalbumin (Gallus gallus, UniProt P01012).
T1 sequence (P01012 1-386): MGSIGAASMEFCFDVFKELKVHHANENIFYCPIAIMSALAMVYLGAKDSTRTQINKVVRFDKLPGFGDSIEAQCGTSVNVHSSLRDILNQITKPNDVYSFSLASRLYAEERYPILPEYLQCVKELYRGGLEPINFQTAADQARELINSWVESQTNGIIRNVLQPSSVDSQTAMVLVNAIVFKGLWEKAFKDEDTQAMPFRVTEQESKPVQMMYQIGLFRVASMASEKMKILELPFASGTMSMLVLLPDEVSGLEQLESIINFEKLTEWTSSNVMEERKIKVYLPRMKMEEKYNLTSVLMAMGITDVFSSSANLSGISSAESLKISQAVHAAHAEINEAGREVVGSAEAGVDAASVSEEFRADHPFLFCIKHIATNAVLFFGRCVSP
The conditions noted are these: pH 7.4; cited from earlier work.

A further series deals with BSA (Bos taurus, UniProt P02769). The settings on record: pH 7.4; cited from earlier work.
Chain of BSA (P02769 25-607): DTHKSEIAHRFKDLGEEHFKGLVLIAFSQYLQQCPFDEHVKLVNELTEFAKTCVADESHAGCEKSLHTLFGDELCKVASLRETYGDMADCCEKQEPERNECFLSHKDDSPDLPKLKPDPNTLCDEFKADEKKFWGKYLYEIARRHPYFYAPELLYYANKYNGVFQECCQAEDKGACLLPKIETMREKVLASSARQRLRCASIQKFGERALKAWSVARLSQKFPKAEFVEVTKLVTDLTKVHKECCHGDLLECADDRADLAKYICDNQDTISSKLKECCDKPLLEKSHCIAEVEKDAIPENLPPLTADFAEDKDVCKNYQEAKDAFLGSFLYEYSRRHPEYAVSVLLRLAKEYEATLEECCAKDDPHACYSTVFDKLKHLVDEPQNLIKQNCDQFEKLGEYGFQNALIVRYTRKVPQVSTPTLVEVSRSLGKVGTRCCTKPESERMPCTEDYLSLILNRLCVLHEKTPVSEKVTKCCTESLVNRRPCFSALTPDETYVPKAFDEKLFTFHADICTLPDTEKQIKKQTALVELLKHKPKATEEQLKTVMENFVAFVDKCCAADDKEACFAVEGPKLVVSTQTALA

On to aluminium oxyhydroxide, for which, in the series with patients with early AD [1] (1 mg s.c., N = 48), the “Reason for Discontinuation from the Study: Death: subjects %” value is listed as “(4.2%)” and the “Reason for Discontinuation from the Study: Death: subjects n” value worked out at 2. Besides, in the series with patients with early AD [1] (2 mg s.c., N = 51), the “Reason for Discontinuation from the Study: Death: subjects %” value was “(0.0%)” and the “Reason for Discontinuation from the Study: Death: subjects n” value is on record as 0. For the same substance, the “parameters informing on the progression of the disease (change in Composite score)” value in the series with patients with early AD [2] (2 mg group vs 1 mg group, all patients, FIG. 1) is on record as “compares favourably”. In the series on patients with early AD [2] (2 mg group, over 18 months, FIG. 3), the “Adapted ADAS-cog: disease progression” value was “Slowing of disease progression”. Moreover, the “effect on disease progression (Composite score) in mild population” value with patients with early AD [2] (mild population (baseline MMSE score of 24 and higher), 2 mg vs 1 mg, FIG. 2) was “most pronounced in the cohort of patients in earlier disease stages”. Also, the “maximal binding capacity to Ovalbumin (pI 4.6)” value on Ovalbumin is on record as 1.6±0.1 mg protein/mg aluminum. For the same substance, the “maximal binding capacity to BSA (pI 4.9)” value at BSA was 2.2±0.1 mg protein/mg aluminum.
